In this data set the test system is CCRIS mutagenicity, Ames/micronucleus/aberration tests. Briefly: CCRIS mutagenicity studies.

Activity calls are given as the source filed them. The rule behind the calls is not given here.

With `c1ccc(-c2ccc(-c3ccccc3)cc2)cc1`, the mutagenic call runs as follows: (Test System: AMES SALMONELLA TYPHIMURIUM, Strain/Indicator: TA98, Metabolic Activation: HAMSTER, LIVER, S-9, AROCLOR 1254, Method: STANDARD PLATE) “inactive; negative”; (Test System: AMES SALMONELLA TYPHIMURIUM, Strain/Indicator: TA98, Metabolic Activation: NONE, Method: STANDARD PLATE) “inactive; negative”; (Test System: AMES SALMONELLA TYPHIMURIUM, Strain/Indicator: TA98, Metabolic Activation: RAT, LIVER, S-9, AROCLOR 1254, Method: STANDARD PLATE) “inactive; negative”; (Test System: AMES SALMONELLA TYPHIMURIUM, Strain/Indicator: TA100, Metabolic Activation: HAMSTER, LIVER, S-9, AROCLOR 1254, Method: STANDARD PLATE) “inactive; negative”; (Test System: AMES SALMONELLA TYPHIMURIUM, Strain/Indicator: TA100, Metabolic Activation: NONE, Method: STANDARD PLATE) “inactive; negative”; (Test System: AMES SALMONELLA TYPHIMURIUM, Strain/Indicator: TA100, Metabolic Activation: RAT, LIVER, S-9, AROCLOR 1254, Method: STANDARD PLATE) “inactive; negative”. The mutagenic call (Test System: AMES SALMONELLA TYPHIMURIUM, Strain/Indicator: TA1535, Metabolic Activation: HAMSTER, LIVER, S-9, AROCLOR 1254, Method: STANDARD PLATE) was “inactive; negative”; the mutagenic call (Test System: AMES SALMONELLA TYPHIMURIUM, Strain/Indicator: TA1535, Metabolic Activation: NONE, Method: STANDARD PLATE) is “inactive; negative”; the mutagenic call (Test System: AMES SALMONELLA TYPHIMURIUM, Strain/Indicator: TA1535, Metabolic Activation: RAT, LIVER, S-9, AROCLOR 1254, Method: STANDARD PLATE) is “inactive; negative”; the mutagenic call (Test System: AMES SALMONELLA TYPHIMURIUM, Strain/Indicator: TA1537, Metabolic Activation: HAMSTER, LIVER, S-9, AROCLOR 1254, Method: STANDARD PLATE) is “inactive; negative”; the mutagenic call (Test System: AMES SALMONELLA TYPHIMURIUM, Strain/Indicator: TA1537, Metabolic Activation: NONE, Method: STANDARD PLATE) was “inactive; negative”; the mutagenic call (Test System: AMES SALMONELLA TYPHIMURIUM, Strain/Indicator: TA1537, Metabolic Activation: RAT, LIVER, S-9, AROCLOR 1254, Method: STANDARD PLATE) is “inactive; negative”. The mutagenic call (Test System: AMES SALMONELLA TYPHIMURIUM, Strain/Indicator: TA1538, Metabolic Activation: HAMSTER, LIVER, S-9, AROCLOR 1254, Method: STANDARD PLATE) was “inactive; negative”; the mutagenic call (Test System: AMES SALMONELLA TYPHIMURIUM, Strain/Indicator: TA1538, Metabolic Activation: NONE, Method: STANDARD PLATE) is “inactive; negative”; the mutagenic call (Test System: AMES SALMONELLA TYPHIMURIUM, Strain/Indicator: TA1538, Metabolic Activation: RAT, LIVER, S-9, AROCLOR 1254, Method: STANDARD PLATE) was “inactive; negative”; the mutagenic call (Test System: MOUSE LYMPHOMA, Strain/Indicator: L5178Y (TK+/TK-), Metabolic Activation: NONE, Method: SUSPENSION/PLATE) is “inactive; negative. reevaluation of results: negative”; the mutagenic call (Test System: MOUSE LYMPHOMA, Strain/Indicator: L5178Y (TK+/TK-), Metabolic Activation: RAT, LIVER, S-9, AROCLOR 1254, Method: SUSPENSION/PLATE) is “active; positive. reevaluation of results: equivocal”.

Source of the values: PubChem BioAssay AID1259407 (Chemical Carcinogenesis Research Information System (CCRIS), 2018).
